Reference: article PMC9862175 (Molecules, 2023)
Values joined by “and” are separate entries in the source; they are usually repeats but may differ in a detail not shown here. Equal values may be shown once. Read-outs that look alike come from different tables or passages of the source.

Key:
[1] = biological target: T1, 17β-HSD1 (Homo sapiens, UniProt P14061); assay: 17β-HSD1 inhibition assay: transformation of [3H]-E1 to [3H]-E2 in whole T-47D cells; type: cell-based; conditions: for inhibition at 0.1 µM / inhibition at 1 µM / inhibition at 10 µM: T47D
T1 construct: endogenous in cells; host or cells: T-47D human breast cancer cells (ATCC), whole cells
T1 sequence (P14061 1-328): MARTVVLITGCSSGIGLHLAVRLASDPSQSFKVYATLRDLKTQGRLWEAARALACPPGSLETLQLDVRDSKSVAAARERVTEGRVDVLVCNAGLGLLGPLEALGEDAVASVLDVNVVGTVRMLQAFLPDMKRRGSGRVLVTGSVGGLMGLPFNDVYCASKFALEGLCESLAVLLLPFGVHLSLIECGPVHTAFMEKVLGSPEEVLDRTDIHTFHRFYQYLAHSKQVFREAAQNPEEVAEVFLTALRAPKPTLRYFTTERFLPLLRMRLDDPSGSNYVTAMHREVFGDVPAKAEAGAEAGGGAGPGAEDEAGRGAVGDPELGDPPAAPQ
Description: Cells were maintained under a 5% CO2 humidified atmosphere at 37 °C. The culture media were changed every two or three days and the cells were split once a week to maintain cell propagation.
T-47D cells were grown in a medium supplemented with insulin (50 ng/mL) and 5% dextran-coated charcoal-treated FBS, which was used rather than untreated 10% FBS, to remove the remaining steroid hormones. Stock solution of each compound to be tested was previously prepared in DMSO and diluted with a culture medium to achieve the appropriate concentrations, prior to use. For the assay, the cells (8000 cells/well) were seeded in a 24-well plate. After 24 h of incubation, a diluted solution of each inhibitor was added to the cells to obtain the appropriate final concentration (0.1, 1 and 10 μM). The final concentration of DMSO in the well was adjusted to 0.03%. […] Cells were incubated for 24 h and each inhibitor was assessed in triplicate. […] The organic phase was evaporated to dryness with nitrogen. Residues were dissolved in CH2Cl2, spotted on silica gel TLC plates (EMD Chemicals Inc., Gibbstown, NJ, USA) and eluted with toluene/acetone (4:1) as the solvent system. […] Each compound was quantified with a scintillation counter.

[2] = system: T-47D breast cancer cells; assay: Cell viability (MTS) assay in T-47D cells; type: cell-based, human; conditions: for IC50: cell proliferation after 3 days, MTS; for Stimulation of ER+ cell proliferation (estrogenic activity): T-47D cells, 3 days
Description: T-47D cells: Human T-47D breast cancer cells were obtained from American Type Culture Collection (Manassas, VA, USA) and cultured in RPMI-1640 supplemented with L-glutamine ([…]), penicillin (100 IU/mL), streptomycin (100 µg/mL), 17β-estradiol (1 nM) and 10% (v/v) fetal bovine serum (FBS). Cells were maintained under a 5% CO2 humidified atmosphere at 37 °C. The culture media were changed every two or three days and the cells were split once a week to maintain cell propagation.
(§1) The cell proliferation assays were performed using 3-(4,5-dimethylthiazol-2-yl)-5-(3-carboxymethoxyphenyl)-2-(4-sulfophenyl)-2H-tetrazolium (MTS) (Cell Titer 96 Aqueous, Promega, Nepean, ON, Canada), as previously described. Briefly, cells (5000/well for T-47D or 3000/well for Z-12) were plated in triplicate in 96-well plates in appropriate culture medium (total of 90 µL). Before each treatment, the cells were incubated at 37 °C in a 5% CO2 humidified atmosphere for 24 h. Compounds 5, 6, 10 and RM-581, as positive control, were dissolved in DMSO to obtain stock solutions, which were diluted at multiple concentrations with culture media to obtain the desired final concentration by adding 10 µL in each well, and the mixture was incubated for 3 days. Following treatment, 20 µL of a solution of MTS were added to each well and the mixture was incubated for 4 h. The plates were subsequently analyzed at 490 nm using a Tecan M-200 microplate reader (Männedorf, Switzerland) and the concentration inhibiting 50% of cell proliferation was determined using GraphPad Prism 6 software.

[3] = system: Z-12 endometriotic epithelial cells; assay: Cell viability (MTS) assay in Z-12 cells; type: cell-based, human; conditions: for IC50: cell proliferation after 3 days, MTS, read-out: Z-12 Cells (Endometriosis) (IC50 in μM), cell proliferation; for Stimulation of ER+ cell proliferation (estrogenic activity): Z-12 cells, 3 days
Description: Z-12 cells: Human Z-12 endometriotic epithelial cells were obtained from Dr. Asgi T. Fazleabas (Michigan State University, Grand Rapids, MI). Cells were grown in Dulbecco’s Modified Eagle medium (DMEM/F12) supplemented with 5% (v/v) FBS treated with dextran-coated charcoal, L-glutamine ([…]), penicillin (100 IU/mL) and streptomycin (100 µg/mL). Cells were maintained under a 5% CO2 humidified atmosphere at 37 °C. The culture media were changed every two or three days and the cells were split once a week to maintain cell propagation.
as §1

[4] = Homo sapiens, Epithelial cell, 72 h
[5] = read-out: Inhibition (IC50 in μM) of E1 to E2 transformation by 17β-HSD1, T-47D cells, [3H]-E1/E1 60 nM, 24 h
[6] = T-47D cells, [3H]-E1/E1 60 nM, 24 h, inhibitor 0.1 μM
[7] = T-47D cells, [3H]-E1/E1 60 nM, 24 h, inhibitor 1 μM
[8] = T-47D cells, [3H]-E1/E1 60 nM, 24 h, inhibitor 10 μM

Structure (SMILES)	IC50 [1] [µM]	inhibition at 0.1 µM [1] [%]	inhibition at 1 µM [1] [%]	inhibition at 10 µM [1] [%]	IC50 ([2]; Homo sapiens, T47D, 72 h) [µM]	Stimulation of ER+ cell proliferation (estrogenic activity) [2]	IC50 [3, 4] [µM]	Stimulation of ER+ cell proliferation (estrogenic activity) [3]	also measured
C[C@]12CC[C@@H]3c4ccc(Oc5cccc(C(N)=O)c5)cc4CC[C@H]3[C@@H]1CCC2=O [Compound 5, 3-(3-Carbamoylphenyloxy)-estra-1,3,5(10)-trien-17-one]	0.31	29.1 ± 6.2	70.7 ± 14.1	98.9 ± 2.8	49	did not stimulate	> 30	did not stimulate	–
C[C@]12CC[C@@H]3c4ccc(Oc5cccc(C(N)=O)c5)cc4CC[C@H]3[C@@H]1CC[C@@H]2O [Compound 6, 3-(3-Carbamoylphenyloxy)-estra-1,3,5(10)-trien-17β-ol]	1.2	40 ± 6.5	48.6 ± 15.7	59.6 ± 1.5	37	did not stimulate	> 30	did not stimulate	–
C[C@]12CC[C@@H]3c4ccc(Oc5cccc(C(N)=O)c5)cc4CC[C@H]3[C@@H]1C[C@@H](CCCBr)[C@@H]2O [Compound 10, 3-(3-Carbamoylphenyloxy)-16α-(3-bromopropyl)-estra-1,3,5(10)-trien-17β-ol]	–	28.2 ± 5.4	37 ± 14.5	82.1 ± 5.7	14	did not stimulate	20	did not stimulate	Inhibitory activity, fold lower than EM-251 ([1]; IC50 1.3 μM vs 0.58 μM of EM-251, T-47D cells): 2 fold; IC50 [1, 5]: 1.3 µM
C[C@]12CC[C@@H]3c4ccc(O)cc4CC[C@H]3[C@@H]1CCC2=O [E1, estrone]	–	–	–	–	–	–	–	–	inhibition at 0.1 µM [1, 6]: 45%; inhibition at 1 µM [1, 7]: 61%; inhibition at 10 µM [1, 8]: 78%; Inhibition (% at 0.1 μM) [1, 6]: 44.9 ± 14.7%; Inhibition (% at 1 μM) [1, 7]: 60.9 ± 8.3%; Inhibition (% at 10 μM) [1, 8]: 78.1 ± 2.2%
C[C@]12CCC3c4ccc(O)cc4CCC3C1C[C@@H](CCCBr)[C@@H]2O (some centres unmarked) [EM-251]	0.58	43.8 ± 0.2	36.9 ± 9.3	86.6 ± 8	–	–	–	–	–
C[C@]12CC[C@@H]3c4ccc(CCBr)cc4CC[C@H]3[C@@H]1C[C@H](Cc1cccc(C(N)=O)c1)[C@@H]2O [PBRM]	–	–	–	–	–	–	–	–	Inhibition (% at 0.1 μM) [1, 6]: 44% and 43.8 ± 3.4%; Inhibition (% at 1 μM) [1, 7]: 75% and 74.8 ± 3.2%; Inhibition (% at 10 μM) [1, 8]: 91.0 ± 3.8%; IC50 [1, 5]: 0.15 µM
C#C[C@]1(O)CC[C@H]2[C@@H]3CCc4cc(OC)c(N5CCN(C(=O)[C@@H]6CCCN6C(=O)c6ccc7ccccc7n6)CC5)cc4[C@H]3CC[C@@]21C [RM-581, reference compound]	–	–	–	–	–	–	–	–	IC50 [2]: 0.61 µM; IC50 [3]: 1.5 µM
